Key:
screwworm flies = experiment: Anti-procreant tests on screw-worm fly; assay type: in vivo
Experimental: These tests were conducted on mass-reared screwworm flies which had been obtained as pupae from the screwworm fly plant at Mission, Texas. The flies were held in cages with water and undiluted corn syrup in a colony room maintained at about 27° C. and 60% relative humidity (RH) with a 12-hour photoperiod beginning at 6 a.m. Adults that emerged were lightly anesthetized with CO2 for ease of manipulation the same day.
The mixtures obtained were fed to the flies in "Dixie" paper cups, 7 cm diameter, and rice hulls were placed on the surface of the food to prevent the flies from getting stuck in the viscous mixture.
Initially, varying concentrations of a chemosterilant were fed to the flies for the first 5 days of life. Thereafter, the chemosterilant was replaced with pure corn syrup. On the 7th day, 3 replicates of 10 flies were stimulated to oviposit and the flies which oviposited were checked for insemination by an examination of the spermathecae for live sperms. The total number of eggs per fly was estimated and the hatchability of these eggs (fertility) was determined 24 hours later (at 37° C.). Observations were made to determine percentage of egg hatch.

Oral toxicity in mice = details: mouse, in vivo; oral, mice; read-out: Estimated LD50
Experimental: (§1) Compounds D, A, and B were also assayed for oral toxicity in mice.

mice = experiment: Oral toxicity in mice; details: mouse, in vivo, po
Experimental: as §1

[1] = system: male flies (family Muscidae); experiment: Sterilization of treated males crossed with virgin untreated females; assay type: in vivo; details: 1.0% in food
Experimental: The compound to be tested was administered in a standard fly food containing 6 parts of sugar, 6 parts of powdered non-fat dry milk, and 1 part of powdered egg yolk. Treated food was prepared by mixing an appropriate amount of a solution or suspension of CBCP in acetone with a batch of the food. The acetone was evaporated (4-6 hours) and the dry material was repulverized.
These flies were maintained on untreated fly food. After 5 days, cups containing the larval-rearing medium was provided as previously described and a 100-egg sample was collected and place on moist larve-rearing medium. About a week after oviposition, examination was made to determine the percentage of hatched eggs and of pupae developed.

flies (family Muscidae) [2] = experiment: Oviposition inhibition tests (treated fly food; Examples 6-9); assay type: in vivo
Procedure, shortened: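 Compound mixed via acetone into sugar/dry milk/egg yolk fly food, solvent evaporated. Cages of 100 newly-emerged adults fed treated diet 6-7 days, then given moist CSMA larva-rearing medium for 4-6 h; cups examined for eggs.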

flies (family Muscidae) [3] = experiment: Chemosterilancy tests (egg hatch and pupal development; Examples 6-9); assay type: in vivo
Procedure, shortened: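 Compound fed to flies in sugar/milk powder/egg yolk diet, applied in acetone that was then evaporated. 100 laid eggs per cup transferred onto larval rearing medium. Scored as percentage egg hatch and pupal development.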

Solubility in water = assay type: physicochemical
[4] = system: Salmonella tester strains TA-100, TA-98, TA-1537; experiment: Ames' Salmonella/microsome mutagenicity procedure; details: for mutagenic activity: TA-100, TA-98, TA-1537, without or with metabolic activation
Experimental: The mutagenic activity of D, A, B, M, N, and CC were tested by the standard Ames' Salmonella/microsome procedure, which is reported to show better than 90% correlation with development of mammalian cancers (Ames et al., Mutation Research, Vol. 31, p. 347, 1975; McCann et al., Proc. Nat. Acad. Sci., Vol. 72, p. 5135, 1975). Tester strains TA-100, TA-98, TA-1537 and the plate test method were used, employing concentrations of 10, 100, 1000, and 10,000 […]. The metabolic activation mixture (S-9 mix) used the 9000 times g supernatant of Arochlor-1254-induced rat liver homogenate at a level of 100 μl per ml of S-9 mix.

[5] = system: early fourth-stage larvae of the common malaria mosquito (Anopheles quadrimaculatus); experiment: Growth-inhibition tests on mosquito larvae; assay type: in vivo; details: in water; corrected by Abbott's formula
Procedure, shortened: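 Fifty early fourth-instar larvae held in 1 L treated water with daily feeding; pupae moved to emergence cages. Dead larvae, pupae and dead, malformed or non-eclosing adults summed, Abbott-corrected as growth inhibition; GI-90 is ppm concentration inhibiting 90% of larvae.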

Row | Structure (SMILES) | Inhibition of embryogenesis (screwworm flies; 0.01% in food) | Oviposition (screwworm flies; 0.01% in food) | Survival, Female (screwworm flies; 0.01% in food) | Survival, Male (screwworm flies; 0.01% in food) | Inhibition of embryogenesis (screwworm flies; 0.10% in food) | Oviposition (screwworm flies; 0.10% in food) | Survival, Female (screwworm flies; 0.10% in food) | Survival, Male (screwworm flies; 0.10% in food) | LD50 (Oral toxicity in mice) | oral toxicity (in words) (mice) | Mortality, parent generation (flies (family Muscidae) [2]; 0.05% in food) | Mortality, parent generation (flies (family Muscidae) [2]; 0.1% in food) | Mortality, parent generation (flies (family Muscidae) [2]; 0.25% in food) | Mortality, parent generation (flies (family Muscidae) [2]; 0.5% in food) | Mortality, parent generation (flies (family Muscidae) [2]; 1.0% in food) | Egg hatch (flies (family Muscidae) [3]; 0.05% in food) | Pupal development (flies (family Muscidae) [3]; 0.05% in food) | Egg hatch (flies (family Muscidae) [3]; 0.1% in food) | Egg hatch (flies (family Muscidae) [3]; 0.25% in food) | Pupal development (flies (family Muscidae) [3]; 0.25% in food) | further results
1 | CC(C)(C)c1cc(Cc2ccccc2)c(O)c(C(C)(C)C)c1 [D, 2,4-Di-t-butyl-6-benzylphenol] | 95.2% | 66.7% | 49.3% | 46.0% | 100% | 95.0% | 88.7% | 55.0% | 3430 mg/kg | only slightly toxic | 0% | 0% | 0% | 0% | 0% | 90% | 90% | 0% | 0% | 0% | sterilization of males [1]: 100%; Pupal development (flies (family Muscidae) [3]; 0.1% in food): 0%; Egg hatch (flies (family Muscidae) [3]; 0.5% in food): 0%; Pupal development (flies (family Muscidae) [3]; 0.5% in food): 0%; Egg hatch (flies (family Muscidae) [3]; 1.0% in food): 0%; Pupal development (flies (family Muscidae) [3]; 1.0% in food): 0%; solubility in water (Solubility in water): low solubility in water; revertant frequencies ([4]; 10-10,000 μg/plate in TA-100 and S-9): exceeded the mean control value plus two or three standard deviations; mutagenic response relative to known mutagenic agents which revert this strain ([4]; TA-100 and S-9): extremely weak
2 | COc1ccc(C(C)c2cc(C(C)(C)C)cc(C(C)(C)C)c2O)cc1 (stereo not drawn) [B, 4,6-di-t-butyl-2-(α-methyl-4-methoxybenzyl)phenol] | – | – | – | – | – | – | – | – | 3550 mg/kg | only slightly toxic | – | – | 0% | 0% | 0% | – | – | – | 18% | 18% | Egg hatch (flies (family Muscidae) [3]; 0.5% in food): 0%; Pupal development (flies (family Muscidae) [3]; 0.5% in food): 0%; Egg hatch (flies (family Muscidae) [3]; 1.0% in food): 0%; Pupal development (flies (family Muscidae) [3]; 1.0% in food): 0%; mutagenic activity [4]: non-mutagenic
3 | CC(c1ccccc1)c1cc(C(C)(C)C)cc(C(C)(C)C)c1O (stereo not drawn) [A, 4,6-Di-t-butyl-2-α-methylbenzylphenol] | 100% | 63.3% | 71.3% | 54.0% | 100% | 90.0% | 68.0% | 47.0% | 2510 mg/kg | only slightly toxic | 0% | 0% | 0% | – | – | 0% | 0% | 0% | 0% | 0% | GI-90 (concentration of growth inhibitor that would prevent and/or retard growth in 90% of the treated larvae) [5]: 0.039 ppm; Mortality, parent generation (flies (family Muscidae) [2]; 0.01% in food): 0%; Mortality, parent generation (flies (family Muscidae) [2]; 0.025% in food): 0%; Egg hatch (flies (family Muscidae) [3]; 0.01% in food): 39%; Pupal development (flies (family Muscidae) [3]; 0.01% in food): 39%; Egg hatch (flies (family Muscidae) [3]; 0.025% in food): 28%; Pupal development (flies (family Muscidae) [3]; 0.025% in food): 28%; Pupal development (flies (family Muscidae) [3]; 0.1% in food): 0%; solubility in water (Solubility in water): low solubility in water; mutagenic activity [4]: non-mutagenic

Reference: patent US4357344A, “Polybutylbenzylphenols and benzyl-3,4-methylenedioxybenzenes in insect population control” (The United States of America as represented by the …, priority 1979, dated 1982)
